Measurements as given in patent US11771765B2, “Light augmented treatment method” (The Procter & Gamble Company, priority 2019, dated 2023).

How the values were obtained:
M. furfur CBS 7982 = assay: Fractional Inhibitor Concentration (FIC): antimicrobial plus 409 nm light on M. furfur growth; format: cell-based, Malassezia furfur; conditions: for shortest light exposure time when applied in combination to give growth inhibition: 409 nm light, with the lowest inhibiting concentration; for growth, OD 600 nm: 16 h growth; for lowest concentration to give growth inhibition: antimicrobial alone, no light; for lowest concentration to give growth inhibition / lowest concentration when applied in combination with light to give growth inhibition: inhibition = OD <=50% of untreated control; for FIC value / Combinatorial Effect: antimicrobial plus 409 nm light; for Combinatorial Effect: classified by FIC value; for lowest concentration when applied in combination with light to give growth inhibition: with 409 nm light
Protocol: Fractional Inhibitor Concentration (FIC) is a conventional methodology for evaluating the interaction of two antimicrobial chemicals. […] In an embodiment of the present invention, FIC is used to determine combinatorial effects of one chemical and exposure to light on Malassezia growth and/or viability in an in vitro system.
• 1. M. furfur CBS 7982 cells are exposed to a varying concentrations of an antimicrobial active (e.g. ZPT, Piroctone Olamine) for a specified amount of time (e.g. 2 min to 3 hours). • 2. After exposure, the antimicrobial is washed away by centrifugation of the cells and a series of washes • 3. Cells are then exposed to light at a wavelength of 409 nm for varying lengths of time • 4. Cells are then allowed to grow up overnight (e.g. 17 h) to determine the impact of the treatment on viability and growth of the organism by measuring OD600 II. Data Analysis: • 1. Inhibition of growth is determined to be where the OD value obtained is <=50% of the untreated control • 2. The lowest concentration value of the antimicrobial agent which inhibits growth is determined • 3. Likewise, the shortest light exposure time is determined that gives growth inhibition • 4. Finally, the combination of the lowest concentration of the antimicrobial and the shortest light exposure time that provides growth inhibition is determined • 5. The FIC value is determined using the calculation below:
[formula] • 6. The combinatorial effect of the antimicrobial and light is classified according to the chart below: […]
(§1) M. furfur is incubated for one hour with varying concentrations of Piroctone Olamine. Cell pellets are collected by centrifugation so that most of the anti-fungal material has been removed. The cell pellet is suspended in PBS and 500 uL samples are distributed to four 12 well plates and treated with light (409 nm) for 1, 10 or 60 minutes or stored in the dark. Samples are then diluted into mDixon, and incubated for 16 h with subsequent growth measured by OD 600 nm.
as §1, with “Hinokitiol.” for “Piroctone Olamine.”, “27” for “16”, “nm. […]” for “nm.”

M. furfur = assay: Dependence of photosensitivity on wavelength, M. furfur (Table 5); format: cell-based, Malassezia furfur; design: overnight growth in mDixon: unit not given here; conditions: for overnight growth in mDixon: N=1
Protocol: Dependence of photosensitivity on wavelength. A fresh overnight culture is diluted 100 fold and grown for three hours to an OD of 0.16. M. furfur is treated at the indicated dose and cultured another three hours. Cells are harvested by centrifugation, suspended in PBS, and exposed to an LED array at the indicated wavelength. The illumination is for ten minutes with 1200 foot candles. The cultures are then allowed to grow overnight in mDixon. N=1.

protoporphyrin IX (PPIX) = assay: Protoporphyrin IX levels in treated M. furfur cells by HPLC; format: cell-based
[1] = LED arrays of 520 (green) and 595 (yellow) light

## [O-]n1ccccc1=S.[O-]n1ccccc1=S.[Zn+2] [ZPT, zinc salt of 1-hydroxy-2-pyridinethione]
M. furfur CBS 7982
  shortest light exposure time when applied in combination to give growth inhibition: 2 min
  lowest concentration to give growth inhibition: 10 ppm
  FIC value: 0.28
  Combinatorial Effect: synergistic
  lowest concentration when applied in combination with light to give growth inhibition: 2.5 ppm
M. furfur CBS 7982; ZPT 1.25 ppm 3 h, 409 nm light 0 min
  growth, OD 600 nm: 7.76
M. furfur CBS 7982; ZPT 1.25 ppm 3 h, 409 nm light 2 min
  growth, OD 600 nm: 7.24
M. furfur CBS 7982; ZPT 1.25 ppm 3 h, 409 nm light 10 min
  growth, OD 600 nm: 6.24
M. furfur CBS 7982; ZPT 1.25 ppm 3 h, 409 nm light 60 min
  growth, OD 600 nm: 1.96
M. furfur CBS 7982; ZPT 2.5 ppm 3 h, 409 nm light 0 min
  growth, OD 600 nm: 7.12
M. furfur CBS 7982; ZPT 2.5 ppm 3 h, 409 nm light 2 min
  growth, OD 600 nm: 3.35
M. furfur CBS 7982; ZPT 2.5 ppm 3 h, 409 nm light 10 min
  growth, OD 600 nm: 0.31
M. furfur CBS 7982; ZPT 2.5 ppm 3 h, 409 nm light 60 min
  growth, OD 600 nm: 0.03
M. furfur CBS 7982; ZPT 5 ppm 3 h, 409 nm light 0 min
  growth, OD 600 nm: 6.21
M. furfur CBS 7982; ZPT 5 ppm 3 h, 409 nm light 2 min
  growth, OD 600 nm: 5.30
M. furfur CBS 7982; ZPT 5 ppm 3 h, 409 nm light 10 min
  growth, OD 600 nm: 3.72
M. furfur CBS 7982; ZPT 5 ppm 3 h, 409 nm light 60 min
  growth, OD 600 nm: 0.87
M. furfur CBS 7982; ZPT 10 ppm 3 h, 409 nm light 0 min
  growth, OD 600 nm: 4.85
M. furfur CBS 7982; ZPT 10 ppm 3 h, 409 nm light 2 min
  growth, OD 600 nm: 4.91
M. furfur CBS 7982; ZPT 10 ppm 3 h, 409 nm light 10 min
  growth, OD 600 nm: 4.06
M. furfur CBS 7982; ZPT 10 ppm 3 h, 409 nm light 60 min
  growth, OD 600 nm: 0.83
M. furfur CBS 7982; ZPT 20 ppm 3 h, 409 nm light 0 min
  growth, OD 600 nm: 0.51
M. furfur CBS 7982; ZPT 20 ppm 3 h, 409 nm light 2 min
  growth, OD 600 nm: 0.58
M. furfur CBS 7982; ZPT 20 ppm 3 h, 409 nm light 10 min
  growth, OD 600 nm: 0.64
M. furfur CBS 7982; ZPT 20 ppm 3 h, 409 nm light 60 min
  growth, OD 600 nm: 0.37
M. furfur; 6 ppm 3 h, 409 nm LED array, 10 min, 1200 foot candles
  overnight growth in mDixon: 0.354
M. furfur; 6 ppm 3 h, 520 nm LED array, 10 min, 1200 foot candles
  overnight growth in mDixon: 3.37
M. furfur; 6 ppm 3 h, 595 nm LED array, 10 min, 1200 foot candles
  overnight growth in mDixon: 3.75
M. furfur; 6 ppm 3 h, Dark
  overnight growth in mDixon: 3.31
M. furfur; LED array of 409 nm light
  photosensitivity: observed photosensitivity
M. furfur; [1]
  photosensitivity: not with LED arrays of 520 (green) and 595 (yellow) light
Protoporphyrin IX (PPIX); ZPT 2.5 ppm
  Total PPIX: 0.37 ng
Protoporphyrin IX (PPIX); ZPT 5 ppm
  Total PPIX: 0.47 ng
Protoporphyrin IX (PPIX); ZPT 10 ppm
  Total PPIX: 0.27 ng

## Cc1cc(CC(C)CC(C)(C)C)n(O)c(=O)c1.NCCO (stereo not shown) [Piroctone Olamine, 1-Hydroxy-4-methyl-6-(2,4,4-trimethylpentyl)-2-pyridone monoethanolamine salt]
M. furfur CBS 7982
  shortest light exposure time when applied in combination to give growth inhibition: 1 min
  lowest concentration to give growth inhibition: 64 ppm
  FIC value: 0.14
  Combinatorial Effect: synergistic
  lowest concentration when applied in combination with light to give growth inhibition: 8 ppm
M. furfur CBS 7982; Piroctone Olamine 4 ppm 1 h, 409 nm light 0 min
  growth, OD 600 nm: 3.6
M. furfur CBS 7982; Piroctone Olamine 4 ppm 1 h, 409 nm light 1 min
  growth, OD 600 nm: 4.1
M. furfur CBS 7982; Piroctone Olamine 4 ppm 1 h, 409 nm light 10 min
  growth, OD 600 nm: 3.9
M. furfur CBS 7982; Piroctone Olamine 4 ppm 1 h, 409 nm light 60 min
  growth, OD 600 nm: 3.7
M. furfur CBS 7982; Piroctone Olamine 8 ppm 1 h, 409 nm light 0 min
  growth, OD 600 nm: 3.9
M. furfur CBS 7982; Piroctone Olamine 8 ppm 1 h, 409 nm light 1 min
  growth, OD 600 nm: 0.1
M. furfur CBS 7982; Piroctone Olamine 8 ppm 1 h, 409 nm light 10 min
  growth, OD 600 nm: 0.0
M. furfur CBS 7982; Piroctone Olamine 8 ppm 1 h, 409 nm light 60 min
  growth, OD 600 nm: 0.0
M. furfur CBS 7982; Piroctone Olamine 16 ppm 1 h, 409 nm light 0 min
  growth, OD 600 nm: 2.6
M. furfur CBS 7982; Piroctone Olamine 16 ppm 1 h, 409 nm light 1 min
  growth, OD 600 nm: 0.1
M. furfur CBS 7982; Piroctone Olamine 16 ppm 1 h, 409 nm light 10 min
  growth, OD 600 nm: 0.0
M. furfur CBS 7982; Piroctone Olamine 16 ppm 1 h, 409 nm light 60 min
  growth, OD 600 nm: 0.0
M. furfur CBS 7982; Piroctone Olamine 32 ppm 1 h, 409 nm light 0 min
  growth, OD 600 nm: 2.1
M. furfur CBS 7982; Piroctone Olamine 32 ppm 1 h, 409 nm light 1 min
  growth, OD 600 nm: 0.2
M. furfur CBS 7982; Piroctone Olamine 32 ppm 1 h, 409 nm light 10 min
  growth, OD 600 nm: 0.0
M. furfur CBS 7982; Piroctone Olamine 32 ppm 1 h, 409 nm light 60 min
  growth, OD 600 nm: 0.0
M. furfur CBS 7982; Piroctone Olamine 64 ppm 1 h, 409 nm light 0 min
  growth, OD 600 nm: 1.3
M. furfur CBS 7982; Piroctone Olamine 64 ppm 1 h, 409 nm light 1 min
  growth, OD 600 nm: 0.1
M. furfur CBS 7982; Piroctone Olamine 64 ppm 1 h, 409 nm light 10 min
  growth, OD 600 nm: 0.0
M. furfur CBS 7982; Piroctone Olamine 64 ppm 1 h, 409 nm light 60 min
  growth, OD 600 nm: 0.0
M. furfur; 8 ppm 3 h, 409 nm LED array, 10 min, 1200 foot candles
  overnight growth in mDixon: 0.891
M. furfur; 8 ppm 3 h, 520 nm LED array, 10 min, 1200 foot candles
  overnight growth in mDixon: 4.34
M. furfur; 8 ppm 3 h, 595 nm LED array, 10 min, 1200 foot candles
  overnight growth in mDixon: 5.59
M. furfur; 8 ppm 3 h, Dark
  overnight growth in mDixon: 4.36
M. furfur; 12 ppm 3 h, 409 nm LED array, 10 min, 1200 foot candles
  overnight growth in mDixon: 0.068
M. furfur; 12 ppm 3 h, 520 nm LED array, 10 min, 1200 foot candles
  overnight growth in mDixon: 3.76
M. furfur; 12 ppm 3 h, 595 nm LED array, 10 min, 1200 foot candles
  overnight growth in mDixon: 4.22
M. furfur; 12 ppm 3 h, Dark
  overnight growth in mDixon: 2.79
M. furfur; LED array of 409 nm light
  photosensitivity: observed photosensitivity
M. furfur; [1]
  photosensitivity: not with LED arrays of 520 (green) and 595 (yellow) light
Protoporphyrin IX (PPIX); Piroctone Olamine 6 ppm
  Total PPIX: 2.6 ng
Protoporphyrin IX (PPIX); Piroctone Olamine 8 ppm
  Total PPIX: 13.9 ng
Protoporphyrin IX (PPIX); Piroctone Olamine 16 ppm
  Total PPIX: 20.7 ng
Protoporphyrin IX (PPIX); Piroctone Olamine 32 ppm
  Total PPIX: 16.5 ng
